Read-outs that look alike come from different tables or passages of the source.
Columns and labels:
Assay type in all cases: in vivo
[1] = system: Diamond Back Moth (Plutella xylostella); test: B.1 Diamond Back Moth (Plutella xylostella), cabbage leaf dip; conditions: foliar
In short: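 Cabbage leaves dipped in compound in 1:1 water:acetone with 0.01% Kinetic HV surfactant, air-dried, then infested with ten 3rd-instar larvae on moist filter paper. Mortality scored at 72 h after treatment; feeding damage rated on a 0-100% scale.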

[2] = system: Boll Weevil (Anthonomus grandis); test: B.3 Boll Weevil (Anthonomus grandis), microtiter plate insect diet; conditions: 120 h, read-out: mortality (egg and larval)
In short: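 Compounds in 25% DMSO/water sprayed at several concentrations onto insect diet in microtiter wells holding 5–10 A. grandis eggs, two replicates. Plates kept 5 days at about 25±1 °C and 75±5% RH. Egg and larval mortality scored visually.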

[3] = system: Mediterranean Fruitfly (Ceratitis capitata); test: B.6 Mediterranean Fruitfly (Ceratitis capitata), microtiter plate insect diet; conditions: 120 h, read-out: mortality (egg and larval)
In short: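 Insect diet with 50-80 C. capitata eggs sprayed with compounds formulated in 75% water/25% DMSO, at different concentrations, two replications. Incubation at about 28±1° C and 80±5% relative humidity for 5 days, then egg and larval mortality assessed visually.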

[4] = system: Tobacco Budworm (Heliothis virescens); test: B.7 Tobacco Budworm (Heliothis virescens) I, microtiter plate insect diet; conditions: 120 h, read-out: mortality (egg and larval)
In short: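 96-well plates with insect diet and 15-25 H. virescens eggs; compounds in 75% water/25% DMSO sprayed onto diet at several concentrations, two replicates. Plates held at about 28±1° C. and 80±5% relative humidity for 5 days, then egg and larval mortality scored visually.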

[5] = system: Vetch Aphid (Megoura viciae); test: B.8 Vetch Aphid (Megoura viciae), broad bean leaf disks; conditions: foliar, 120 h
Description: B.8 Vetch Aphid (Megoura viciae)
For evaluating control of vetch aphid (Megoura viciae) through contact or systemic means the test unit consisted of 24-well-microtiter plates containing broad bean leaf disks.
The compounds were formulated using a solution containing 75% v/v water and 25% v/v DMSO. Different concentrations of formulated compounds were sprayed onto the leaf disks at 2.5 μl, using a custom built micro atomizer, at two replications.
After application, the leaf disks were air-dried and 5-8 adult aphids placed on the leaf disks inside the microtiter plate wells. The aphids were then allowed to suck on the treated leaf disks and incubated at about 23±1° C. and about 50±5% relative humidity for 5 days. Aphid mortality and fecundity was then visually assessed.

[6] = system: Green Peach Aphid (Myzus persicae); test: B.9 Green Peach Aphid (Myzus persicae), sprayed bell pepper plants; conditions: 120 h, infested bell pepper plants sprayed, after 5 days, in comparison with untreated controls
In short: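 Bell pepper plants at first true-leaf stage, infested with 30-50 aphids each, were sprayed electrostatically with compound in 50% acetone:water plus 0.01% nonionic surfactant. Held at about 25° C, 24-hr light, 20-40% RH. Mortality versus untreated controls scored after 5 days.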

[7] = system: Southern Armyworm (Spodoptera eridania), 2nd Instar Larvae; test: B.10 Southern Armyworm (Spodoptera eridania), 2nd Instar Larvae, sprayed lima bean plants; conditions: 96 h
In short: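 Lima bean plants at 1st true leaf stage sprayed electrostatically with compound in 50% acetone:50% water plus 0.01% nonionic surfactant, then infested with about 10 to 11 2nd instar larvae. Mortality and reduced feeding assessed 4 days after treatment at about 25° C versus untreated plants.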

[8] = system: Yellow Fever Mosquito (Aedes aegypti); test: whole plant or invertebrate; conditions: 48 h, freshly hatched larvae in tap water, 2 days, in comparison with untreated controls, read-out: mortality (larval)
In short: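 Freshly hatched A. aegypti larvae, 5–15 per well, were held in 200 μl tap water. Compounds formulated in 75:25 water:DMSO were sprayed at various concentrations, 2.5 μl per well by micro-atomizer, in two replicates.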

[9] = system: Silverleaf Whitefly (Bemisia argentifoli); test: B.5 Silverleaf Whitefly (Bemisia argentifoli), sprayed cotton plants; conditions: 72 h, whitefly adults on sprayed cotton plants, 3 days after treatment, in comparison with untreated controls
Description: B.5 Silverleaf Whitefly (Bemisia argentifoli)
The active compounds were formulated by a Tecan liquid handler in 100% cyclohexanone as a 10,000 ppm solution supplied in tubes. The 10,000 ppm solution was serially diluted in 100% cyclohexanone to make interim solutions. These served as stock solutions for which final dilutions were made by the Tecan in 50% acetone:50% water (v/v) into 5 or 10 ml glass vials. A nonionic surfactant (Kinetic®) was included in the solution at a volume of 0.01% (v/v). The vials were then inserted into an automated electrostatic sprayer equipped with an atomizing nozzle for application to plants/insects.
Cotton plants at the cotyledon stage (one plant per pot) were sprayed by an automated electrostatic plant sprayer equipped with an atomizing spray nozzle. The plants were dried in the sprayer fume hood and then removed from the sprayer. Each pot was placed into a plastic cup and about 10 to 12 whitefly adults (approximately 3-5 days old) were introduced. The insects were collected using an aspirator and a nontoxic Tygon® tubing connected to a barrier pipette tip. The tip, containing the collected insects, was then gently inserted into the soil containing the treated plant, allowing insects to crawl out of the tip to reach the foliage for feeding. Cups were covered with a reusable screened lid. Test plants were maintained in a growth room at about 25° C. and about 20-40% relative humidity for 3 days, avoiding direct exposure to fluorescent light (24 hour photoperiod) to prevent trapping of heat inside the cup. Mortality was assessed 3 days after treatment, compared to untreated control plants.

[10] = system: Orchid thrips (dichromothrips corbetti); test: B.12 Orchid thrips (dichromothrips corbetti), floral-immersion technique; conditions: adult thrips on dipped orchid petals, 72 hours after treatment, in comparison with untreated controls
In short: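 Whole orchid flower petals were dipped in compound in 1:1 acetone:water with 0.01% v/v Kinetic HV, dried, and enclosed with about 20 adult thrips. They were held under continuous light at about 28° C. Live thrips were counted and percent mortality recorded at 72 hours.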

[11] = 500 ppm, 3rd instar larvae on dipped cabbage leaves, 72 hours after treatment, in comparison with untreated controls, read-out: mortality
[12] = 800 ppm, sprayed onto insect diet, 5 days, in comparison with untreated controls
[13] = 2500 ppm, adult aphids on sprayed leaf disks, 5 days, in comparison with untreated controls, read-out: mortality
[14] = 300 ppm, larvae on sprayed lima bean plants, 4 days after treatment, in comparison with untreated controls, read-out: mortality

Fc1ccc(NC(=S)N/N=C/c2ccc3c(ccc4c3ncn4-c3ccc(OC(F)(F)F)cc3)c2)c(F)c1 [C-5, 1-(2,4-difluorophenyl)-3-[(E)-[3-[4-(trifluoromethoxy)phenyl]benzo[e]benzimidazol-7-yl]methyleneamino] thiourea]
≥ 75%: mortality at 500 ppm [1, 11] | mortality at 800 ppm [2, 12] | mortality at 800 ppm [3, 12] | mortality at 800 ppm [4, 12] | mortality at 2500 ppm [5, 13]

FC(F)(F)Oc1ccc(-c2onc3c2CCc2cc(/C=N/NC(=S)Nc4cc(C(F)(F)F)ccc4Cl)ccc2-3)cc1 [C-18, 1-[2-chloro-5-(trifluoromethyl)phenyl]-3-[(E)-[3-[4-(trifluoromethoxy)phenyl]-4,5-dihydrobenzo[g][2,1]benzoxazol-7-yl]methyleneamino]thiourea]
≥ 75%: mortality at 2500 ppm [5, 13]

O=[N+]([O-])c1ccccc1NC(=S)N/N=C/c1ccc2c(c1)CCc1c-2nnn1-c1ccc(OC(F)(F)F)cc1 [C-43, 1-(2-nitrophenyl)-3-[[3-[4-(trifluoromethoxy)phenyl]-5,6-dihydro-4H-benzo[e]benzotriazol-7-ylidene]methylimino]thiourea]
≥ 75%: mortality at 2500 ppm [5, 13] | mortality at 800 ppm [6]

CC(OC(=O)Nc1ccc2c(ccc3c2ncn3-c2ccc(OC(F)(F)F)cc2)c1)c1ccc(Cl)cn1 (stereo not drawn) [C-56, 1-(5-chloro-2-pyridyl)ethyl N-[3-[4-(trifluoromethoxy)phenyl]benzo[e]benzimidazol-7-yl]carbamate]
≥ 75%: mortality at 500 ppm ([1]; 72 h) | mortality at 800 ppm [2] | mortality at 800 ppm [3] | mortality at 800 ppm [4] | mortality at 2500 ppm [5] | mortality at 300 ppm [7] | mortality at 800 ppm [8]

CCc1cccc(C)c1NC(=S)N/N=C/c1ccc2c(ccc3c2ncn3-c2ccc(SC(F)(F)F)cc2)c1 [C-76, 1-(2-ethyl-6-methyl-phenyl)-3-[(E)-[3-[4-(trifluoromethylsulfanyl)phenyl]benzo[e]benzimidazol-7-yl]methyleneamino]thiourea]
≥ 75%: mortality at 500 ppm [1, 11] | mortality at 800 ppm [2, 12] | mortality at 300 ppm [9] | mortality at 800 ppm [3, 12] | mortality at 800 ppm [4, 12] | mortality at 800 ppm [6] | mortality at 300 ppm [7, 14] | mortality at 800 ppm [8] | mortality at 500 ppm [10]

Cc1cccc(Cl)c1NC(=S)N/N=C/c1ccc2c(ccc3c2ncn3-c2ccc(C(F)(F)F)cc2)c1 [C-77, 1-(2-chloro-6-methyl-phenyl)-3-[(E)-[3-[4-(trifluoromethyl)phenyl]benzo[e]benzimidazol-7-yl]methyleneamino] thiourea]
≥ 75%: mortality at 500 ppm [1, 11] | mortality at 800 ppm [2, 12] | mortality at 300 ppm [9] | mortality at 800 ppm [3, 12] | mortality at 800 ppm [4, 12] | mortality at 800 ppm [6] | mortality at 300 ppm [7, 14] | mortality at 800 ppm [8] | mortality at 500 ppm [10]

Cc1ccc(-n2cnc3c4ccc(/C=N/NC(=S)Nc5c(C)cccc5C)cc4ccc32)cc1 [C-105, 1-(2,6-dimethylphenyl)-3-[(E)-[3-(p-tolyl)benzo[e]benzimidazol-7-yl]methyleneamino]thiourea]
≥ 75%: mortality at 800 ppm [2, 12] | mortality at 800 ppm [3, 12] | mortality at 2500 ppm [5, 13]
